Source: the supplement of paper PMC10307832

Key:
Assay in all cases: relative viability (nuclei count vs DMSO), 5 days (fraction); higher = more cells survive
Decitabine + Tozasertib = compound: Nc1ncn([C@H]2C[C@H](O)[C@@H](CO)O2)c(=O)n1 [Decitabine] + Cc1cc(Nc2cc(N3CCN(C)CC3)nc(Sc3ccc(NC(=O)C4CC4)cc3)n2)n[nH]1 [Tozasertib] (partner 0.1 µM)
Method in brief: (§1)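 After 5 days of treatment, lung cancer cells in 1536-well plates were fixed and stained in a single step (final 0.05% Triton X-100, 1% formaldehyde, 1 ug/ml Hoechst) and their nuclei counted on 4× images. Treatment had been applied by pin tool the day after seeding as one drug alone or as a fixed anchor-drug dose with five library-drug doses (not always all listed) in √10 steps. Relative viability is the nuclei count of treated wells divided by that of vehicle wells, and values are medians of duplicate plates.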

[1] = compound: O=C(C[C@H]1NCCC[C@@H]1O)Cn1cnc2cc(Br)c(Cl)cc2c1=O (racemic) [Halofuginone] + CC(C)C[C@H](NC(=O)[C@H](Cc1ccccc1)NC(=O)c1cnccn1)B(O)O [Bortezomib] (partner 0.002 µM)
Method in brief: as §1

Cediranib + Decitabine = compound: COc1cc2c(Oc3ccc4[nH]c(C)cc4c3F)ncnc2cc1OCCCN1CCCC1 [Cediranib] + Nc1ncn([C@H]2C[C@H](O)[C@@H](CO)O2)c(=O)n1 [Decitabine] (partner 2 µM)
Method in brief: as §1

Cediranib + Pemetrexed = compound: COc1cc2c(Oc3ccc4[nH]c(C)cc4c3F)ncnc2cc1OCCCN1CCCC1 [Cediranib] + Nc1nc2[nH]cc(CCc3ccc(C(=O)N[C@@H](CCC(=O)O)C(=O)O)cc3)c2c(=O)[nH]1 [Pemetrexed] (partner 0.2 µM)
Method in brief: as §1

Row | Cell Line | relative viability (Decitabine + Tozasertib; first compound 0.04 µM) | relative viability (Decitabine + Tozasertib; first compound 0.1265 µM) | relative viability (Decitabine + Tozasertib; first compound 0.4 µM) | relative viability (Decitabine + Tozasertib; first compound 1.265 µM) | relative viability (Decitabine + Tozasertib; first compound 4 µM) | relative viability ([1]; first compound 0.001 µM) | relative viability ([1]; first compound 0.003162 µM) | relative viability ([1]; first compound 0.01 µM) | relative viability ([1]; first compound 0.03162 µM) | relative viability ([1]; first compound 0.1 µM) | relative viability (Cediranib + Decitabine; first compound 0.04 µM) | relative viability (Cediranib + Decitabine; first compound 0.1265 µM) | relative viability (Cediranib + Decitabine; first compound 0.4 µM) | relative viability (Cediranib + Decitabine; first compound 1.265 µM) | relative viability (Cediranib + Decitabine; first compound 4 µM) | relative viability (Cediranib + Pemetrexed; first compound 0.04 µM) | relative viability (Cediranib + Pemetrexed; first compound 0.1265 µM) | relative viability (Cediranib + Pemetrexed; first compound 0.4 µM) | relative viability (Cediranib + Pemetrexed; first compound 1.265 µM) | relative viability (Cediranib + Pemetrexed; first compound 4 µM)
1 | NCI-H1355 | 0.315 | 0.334 | 0.263 | 0.224 | 0.224 | 1.13 | 1.19 | 1.18 | 1.24 | 0.951 | 0.331 | 0.359 | 0.353 | 0.367 | 0.429 | 1.13 | 1.06 | 0.95 | 1.02 | 1.08
2 | NCI-H1437 | 0.358 | 0.363 | 0.281 | 0.201 | 0.17 | 0.548 | 0.604 | 0.504 | 0.483 | 0.253 | 0.67 | 0.602 | 0.621 | 0.562 | 0.639 | 0.33 | 0.299 | 0.289 | 0.334 | 0.337
3 | NCI-H1650 | 0.247 | 0.297 | 0.289 | 0.169 | 0.193 | 0.234 | 0.24 | 0.208 | 0.221 | 0.203 | 0.408 | 0.482 | 0.354 | 0.496 | 0.385 | 0.394 | 0.364 | 0.38 | 0.349 | 0.384
4 | NCI-H1651 | 0.521 | 0.718 | 0.6 | 0.378 | 0.371 | 0.93 | 0.972 | 0.915 | 0.898 | 0.903 | 0.482 | 0.538 | 0.669 | 0.542 | 0.652 | 0.601 | 0.619 | 0.592 | 0.497 | 0.53
5 | NCI-H1666 | 0.514 | 0.577 | 0.615 | 0.502 | 0.517 | 0.856 | 0.902 | 0.791 | 0.85 | 0.618 | 0.738 | 0.624 | 0.728 | 0.87 | 0.727 | 0.889 | 0.962 | 0.898 | 0.912 | 0.841
6 | NCI-H1734 | 0.265 | 0.246 | 0.221 | 0.206 | 0.192 | 1.14 | 0.919 | 0.939 | 0.814 | 0.632 | 0.531 | 0.512 | 0.551 | 0.497 | 0.536 | 0.472 | 0.409 | 0.412 | 0.425 | 0.425
7 | NCI-H1755 | 0.525 | 0.538 | 0.473 | 0.372 | 0.357 | 0.968 | 0.913 | 0.94 | 0.99 | 0.816 | 0.71 | 0.66 | 0.753 | 0.707 | 0.724 | 0.432 | 0.391 | 0.422 | 0.437 | 0.449
8 | NCI-H1915 | 0.274 | 0.224 | 0.174 | 0.175 | 0.189 | 0.522 | 1.05 | 0.93 | 1 | 0.973 | 0.259 | 0.248 | 0.259 | 0.26 | 0.28 | 0.655 | 0.74 | 0.448 | 0.516 | 0.446
9 | NCI-H1975 | 0.279 | 0.239 | 0.132 | 0.152 | 0.129 | 0.432 | 0.383 | 0.402 | 0.339 | 0.168 | 0.638 | 0.432 | 0.403 | 0.351 | 0.42 | 0.269 | 0.314 | 0.277 | 0.301 | 0.284
10 | NCI-H1993 | 0.682 | 0.591 | 0.683 | 0.568 | 0.553 | 1.27 | 1.14 | 1.07 | 1.27 | 0.786 | – | 0.629 | 0.666 | 0.518 | 0.651 | – | 0.581 | 0.627 | 0.49 | 0.585
11 | NCI-H2009 | 0.628 | 0.451 | 0.399 | 0.312 | 0.252 | 1.07 | 1.28 | 0.95 | 0.799 | 0.32 | 0.4 | 0.366 | 0.369 | 0.333 | 0.417 | 1.08 | 0.914 | 0.957 | 1.04 | 0.999
12 | NCI-H2023 | 0.218 | 0.226 | 0.157 | 0.0961 | 0.122 | 0.981 | 1.07 | 0.957 | 0.421 | 0.0849 | 0.212 | 0.229 | 0.229 | 0.234 | 0.266 | 0.283 | 0.274 | 0.254 | 0.233 | 0.248
13 | NCI-H2085 | 0.666 | 0.669 | 0.54 | 0.454 | 0.437 | 1.07 | 1.06 | 1.04 | 0.9 | 0.753 | 0.55 | 0.515 | 0.537 | 0.526 | 0.541 | 0.892 | 1.06 | 0.864 | 0.812 | 0.9
14 | NCI-H2087 | 0.229 | 0.194 | 0.176 | 0.129 | 0.153 | 0.758 | 0.839 | 0.86 | 0.676 | 0.917 | 0.22 | 0.35 | 0.308 | 0.328 | 0.276 | 0.734 | 0.678 | 0.633 | 0.587 | 0.63
15 | NCI-H2126 | 0.648 | 0.606 | 0.425 | 0.451 | 0.399 | 1.16 | 1.08 | 1.07 | 1.07 | 1.11 | 0.589 | 0.573 | 0.58 | 0.561 | 0.602 | 0.701 | 0.595 | 0.627 | 0.725 | 0.748
16 | NCI-H2347 | 0.415 | 0.486 | 0.493 | 0.358 | 0.347 | 1.24 | 1.09 | 0.758 | 1.03 | 0.852 | 0.671 | 0.703 | 0.617 | 0.659 | 0.568 | 0.397 | 0.353 | 0.425 | 0.454 | 0.44
17 | NCI-H2405 | 0.521 | 0.598 | 0.526 | 0.388 | 0.337 | 1.07 | 0.948 | 0.968 | 0.943 | 0.904 | 0.68 | 0.758 | 0.71 | 0.661 | 0.793 | 1.02 | 1.01 | 0.997 | 1.1 | 1.16
18 | NCI-H3122 | 0.328 | 0.369 | 0.118 | – | 0.246 | 1.05 | 1.06 | 1 | 0.954 | 1.04 | 0.558 | – | 0.421 | 0.417 | 0.477 | 0.227 | 0.238 | 0.191 | 0.203 | 0.216
19 | PC-3 [JPC-3] | 0.593 | 0.59 | 0.459 | 0.448 | 0.404 | 0.852 | 0.875 | 0.736 | 0.799 | 0.873 | 0.804 | – | 0.777 | 0.737 | 0.753 | 1.03 | – | 1.08 | 1.17 | 0.96
20 | PC-14 | 0.25 | 0.182 | 0.0787 | 0.0922 | 0.0951 | 0.865 | 0.819 | 0.697 | 0.13 | 0.0654 | 0.209 | 0.245 | 0.241 | 0.309 | 0.264 | 0.0843 | 0.143 | 0.13 | 0.131 | 0.146
21 | RERF-LC-KJ | 0.511 | 0.446 | – | 0.309 | 0.379 | 1.23 | 1.12 | 1.15 | 1.17 | 1.04 | 0.657 | 0.629 | 0.715 | 0.666 | 0.684 | 0.488 | 0.346 | 0.444 | 0.514 | 0.479
22 | SK-LU-1 | 0.283 | 0.288 | 0.214 | 0.238 | 0.24 | 1.28 | 0.931 | 0.955 | 1.31 | 0.821 | 0.657 | 0.638 | 0.636 | 0.613 | 0.73 | 1.11 | 1.01 | 0.969 | 0.956 | 1.18
23 | SW 1573 | 0.165 | 0.167 | 0.172 | 0.124 | 0.108 | 1.03 | 1.02 | 1.15 | 0.653 | 0.227 | 0.606 | 0.685 | 0.542 | 0.408 | 0.553 | 0.981 | 0.954 | 0.844 | 0.826 | 0.908
